Values quoted from earlier work, collected in publication PMC12697872, “Rethinking the AI Paradigm for Solubility Prediction of Drug‑Like Compounds with Dual‐Perspective Modeling and Experimental Validation” (Advanced Science, 2025).
Where two headings read alike, the source gives them in different places.

Legend:
[1] = cited from earlier work; for Class: SC2-1 dataset, aqueous solubility class 0-6; for LogS(mol/L): SC2-1 dataset (Second Solubility Challenge, tight subset), aqueous solubility
[2] = experimental aqueous solubility as logS, cited from earlier work
[3] = sheet "DrugBank" of Supplement 2, ref DrugBank
[4] = sheet "DrugBank", ref DrugBank database

Structure (SMILES): Oc1ccc(/C=C/c2cc(O)cc(O)c2)cc1 [Oc1ccc(/C=C/c2cc(O)cc(O)c2)cc1]
- Class [1]: 6 (Practically insoluble or insoluble (6))

Structure (SMILES): CCOc1ccc2nc(S(N)(=O)=O)sc2c1 [CCOc1ccc2nc(S(N)(=O)=O)sc2c1]
- LogS(mol/L) [1]: -3.76 mol/L
- Class [1]: 6 (Practically insoluble or insoluble (6))

Structure (SMILES): CO/N=C(\C(=O)N[C@@H]1C(=O)N2C(C(=O)O)=C(CSc3nnnn3C)CS[C@H]12)c1csc(N)n1
- LogS(mol/L) [1]: -3.27 mol/L
- Class [1]: 5 (Very slightly soluble (5))

Structure (SMILES): CCCNC(=O)NS(=O)(=O)c1ccc(Cl)cc1 [CCCNC(=O)NS(=O)(=O)c1ccc(Cl)cc1]
- LogS(mol/L) [1]: -3.17 mol/L
- Class [1]: 5 (Very slightly soluble (5))

Structure (SMILES): CCC1(c2ccccc2)C(=O)NCNC1=O [CCC1(c2ccccc2)C(=O)NCNC1=O]
- LogS(mol/L) [1]: -2.53 mol/L
- Class [1]: 5 (Very slightly soluble (5))

Structure (SMILES): COc1ccc2c(c1OC)C(=O)O[C@@H]2[C@H]1c2c(cc3c(c2OC)OCO3)CCN1C
- LogS(mol/L) [1]: -4.48 mol/L
- Class [1]: 6 (Practically insoluble or insoluble (6))

Structure (SMILES): CCCCC1C(=O)N(c2ccccc2)N(c2ccc(O)cc2)C1=O (stereo not shown) [CCCCC1C(=O)N(c2ccccc2)N(c2ccc(O)cc2)C1=O]
- LogS(mol/L) [1]: -3.94 mol/L
- Class [1]: 6 (Practically insoluble or insoluble (6))

Structure (SMILES): NCC(CC(=O)O)c1ccc(Cl)cc1 (stereo not shown) [NCC(CC(=O)O)c1ccc(Cl)cc1]
- LogS(mol/L) [1]: -1.78 mol/L
- Class [1]: 4 (Slightly soluble (4))

Structure (SMILES): CC(=O)Oc1ccccc1C(=O)O [CC(=O)Oc1ccccc1C(=O)O]
- LogS(mol/L) [1]: -1.67 mol/L
- Class [1]: 4 (Slightly soluble (4))

Structure (SMILES): C/C=C/C1=C(C(=O)O)N2C(=O)[C@@H](NC(=O)[C@H](N)c3ccc(O)cc3)[C@H]2SC1
- LogS(mol/L) [1]: -1.68 mol/L
- Class [1]: 4 (Slightly soluble (4))

Structure (SMILES): c1ccc(Nc2ccccc2)cc1 [c1ccc(Nc2ccccc2)cc1]
- Class [1]: 6 (Practically insoluble or insoluble (6))

Structure (SMILES): c1ccc2c(c1)[nH]c1ccccc12 [c1ccc2c(c1)[nH]c1ccccc12]
- LogS(mol/L) [1]: -5.19 mol/L
- Class [1]: 6 (Practically insoluble or insoluble (6))

Structure (SMILES): CC(=O)N1CCN(c2ccc(OC[C@H]3CO[C@](Cn4ccnc4)(c4ccc(Cl)cc4Cl)O3)cc2)CC1 (racemic)
- LogS(mol/L) [1]: -5.47 mol/L
- Class [1]: 6 (Practically insoluble or insoluble (6))

Structure (SMILES): COc1ccc2cc(CCC(C)=O)ccc2c1 [COc1ccc2cc(CCC(C)=O)ccc2c1]
- LogS(mol/L) [1]: -4.4 mol/L
- Class [1]: 6 (Practically insoluble or insoluble (6))

Structure (SMILES): CC(C(=O)O)c1ccc(N2Cc3ccccc3C2=O)cc1 (stereo not shown) [CC(C(=O)O)c1ccc(N2Cc3ccccc3C2=O)cc1]
- LogS(mol/L) [1]: -4.65 mol/L
- Class [1]: 6 (Practically insoluble or insoluble (6))

Structure (SMILES): CS(=O)(=O)c1ccc(C2=C(c3ccccc3)C(=O)OC2)cc1
- LogS(mol/L) [1]: -4.61 mol/L
- Class [1]: 6 (Practically insoluble or insoluble (6))

Structure (SMILES): O=C1C(O)=C(C2CCC(c3ccc(Cl)cc3)CC2)C(=O)c2ccccc21 (stereo not shown)
- LogS(mol/L) [1]: -6.07 mol/L
- Class [1]: 6 (Practically insoluble or insoluble (6))

Structure (SMILES): CN(C)CCCN1c2ccccc2Sc2ccccc21 [CN(C)CCCN1c2ccccc2Sc2ccccc21]
- LogS(mol/L) [1]: -4.45 mol/L
- Class [1]: 6 (Practically insoluble or insoluble (6))

Structure (SMILES): COc1ccc([C@@H]2Sc3ccccc3N(CCN(C)C)C(=O)[C@@H]2OC(C)=O)cc1
- LogS(mol/L) [1]: -3.02 mol/L
- Class [1]: 5 (Very slightly soluble (5))

Structure (SMILES): CC(C)NCC(O)COc1cccc2[nH]ccc12 (stereo not shown) [CC(C)NCC(O)COc1cccc2[nH]ccc12]
- LogS(mol/L) [1]: -3.75 mol/L
- Class [1]: 6 (Practically insoluble or insoluble (6))

Structure (SMILES): CCCCNc1ccc(C(=O)OCCN(C)C)cc1 [CCCCNc1ccc(C(=O)OCCN(C)C)cc1]
- LogS(mol/L) [1]: -3.11 mol/L
- Class [1]: 5 (Very slightly soluble (5))

Structure (SMILES): CCC(C)C1(CC)C(=O)NC(=O)NC1=O (stereo not shown) [CCC(C)C1(CC)C(=O)NC(=O)NC1=O]
- LogS(mol/L) [1]: -2.22 mol/L
- Class [1]: 4 (Slightly soluble (4))

Structure (SMILES): Cc1ccnc2c1NC(=O)c1cccnc1N2C1CC1 [Cc1ccnc2c1NC(=O)c1cccnc1N2C1CC1]
- Class [1]: 5 (Very slightly soluble (5))

Structure (SMILES): CC(C(=O)O)c1ccc(-c2ccccc2)c(F)c1 (stereo not shown) [CC(C(=O)O)c1ccc(-c2ccccc2)c(F)c1]
- LogS(mol/L) [1]: -4.34 mol/L
- Class [1]: 6 (Practically insoluble or insoluble (6))

Structure (SMILES): COC(=O)Nc1nc2ccccc2[nH]1 [COC(=O)Nc1nc2ccccc2[nH]1]
- LogS(mol/L) [1]: -4.56 mol/L
- Class [1]: 6 (Practically insoluble or insoluble (6))

Structure (SMILES): Cc1ccc(-c2cc(C(F)(F)F)nn2-c2ccc(S(N)(=O)=O)cc2)cc1
- LogS(mol/L) [1]: -5.89 mol/L
- Class [1]: 6 (Practically insoluble or insoluble (6))

Structure (SMILES): O=C1CCc2cc(OCCCCc3nnnn3C3CCCCC3)ccc2N1 [O=C1CCc2cc(OCCCCc3nnnn3C3CCCCC3)ccc2N1]
- LogS(mol/L) [1]: -4.93 mol/L
- Class [1]: 6 (Practically insoluble or insoluble (6))

Structure (SMILES): CC(=O)Nc1nnc(S(N)(=O)=O)s1 [CC(=O)Nc1nnc(S(N)(=O)=O)s1]
- LogS(mol/L) [1]: -2.38 mol/L
- Class [1]: 5 (Very slightly soluble (5))

Structure (SMILES): NC(=O)c1cccnc1 [Nicotinamide]
- ex_logS [2, 3]: 0.6122

Structure (SMILES): Cc1oncc1C(=O)Nc1ccc(C(F)(F)F)cc1 [Leflunomide]
- ex_logS [2, 4]: -4.109

Structure (SMILES): Cn1cnc2c1c(=O)[nH]c(=O)n2C [Theobromine]
- ex_logS [2, 4]: -2.737

Structure (SMILES): C[C@]12CC[C@H]3C(=CCc4cc(O)ccc43)[C@@H]1CCC2=O [Equilin]
- ex_logS [2, 4]: -5.279

Structure (SMILES): Cc1cccc(C)c1NC(=O)C1CCCCN1C (stereo not shown) [Mepivacaine]
- ex_logS [2, 3]: -1.991

Structure (SMILES): Cn1c(=O)c2c(ncn2CC(O)CO)n(C)c1=O (stereo not shown) [Dyphylline]
- ex_logS [2, 4]: 0.1172

Structure (SMILES): CC(C)NCC(O)c1cc(O)cc(O)c1 (stereo not shown) [Orciprenaline]
- ex_logS [2, 3]: -4.338

Structure (SMILES): OCCc1ccccc1 [Phenylethyl alcohol]
- ex_logS [2, 4]: -0.7406

Structure (SMILES): C[C@]12CC[C@H](O)CC1=CC[C@@H]1[C@@H]2CC[C@]2(C)C(=O)CC[C@@H]12 [Prasterone]
- ex_logS [2, 3]: -3.657

Structure (SMILES): O=c1[nH]cnc2nc[nH]c12 [Hypoxanthine]
- ex_logS [2, 3]: -2.2888

Structure (SMILES): N[C@@H](Cc1ccccc1)C(=O)O [Phenylalanine]
- ex_logS [2, 4]: -0.7882

Structure (SMILES): O=C(O)c1ccc(O)cc1O [2,4-Dihydroxybenzoic Acid]
- ex_logS [2, 3]: -1.426

Structure (SMILES): CCCCN1CCCCC1C(=O)Nc1c(C)cccc1C (stereo not shown) [Bupivacaine]
- ex_logS [2, 4]: -3.22

Structure (SMILES): CN1C(=O)OC(C)(C)C1=O [Trimethadione]
- ex_logS [2, 3]: -0.4568

Structure (SMILES): CCC(=O)O[C@H]1CC[C@H]2[C@@H]3CCC4=CC(=O)CC[C@]4(C)[C@H]3CC[C@]12C [Testosterone propionate]
- ex_logS [2, 4]: -5.367

Structure (SMILES): Cn1c(=O)c2[nH]cnc2n(C)c1=O [Aminophylline]
- ex_logS [2, 4]: -0.3227

Structure (SMILES): O=C(CCBr)N1CCN(C(=O)CCBr)CC1 [Pipobroman]
- ex_logS [2, 4]: -2.155

Structure (SMILES): CN(C)CCc1c[nH]c2ccc(C[C@H]3COC(=O)N3)cc12 [Zolmitriptan]
- ex_logS [2, 4]: -2.344

Structure (SMILES): O=C(/C=C/c1cccc(S(=O)(=O)Nc2ccccc2)c1)NO [Belinostat]
- ex_logS [2, 4]: -3.357

Structure (SMILES): c1ccc2cnccc2c1 [Isoquinoline]
- ex_logS [2, 3]: -1.456

Structure (SMILES): O=C(OCCO)c1ccccc1O [Glycol salicylate]
- ex_logS [2, 4]: -1.143

Structure (SMILES): CCOC(=O)[C@H](CCc1ccccc1)N[C@@H](C)C(=O)N1CCC[C@H]1C(=O)O [Enalapril]
- ex_logS [2, 4]: -1.361

Structure (SMILES): c1ccc(-c2ccc(C(c3ccccc3)n3ccnc3)cc2)cc1 (stereo not shown) [bifonazole]
- ex_logS [2, 3]: -5.95
